# Structures can show the parent of a compound that is named as a salt.
# Target: T1, human FPTase (Homo sapiens, UniProt P49354+P49356)
# T1 construct: made in house
# Test: In vitro inhibition of ras farnesyl transferase (FPTase transferase assay)
# Assay type: biochemical
# Conditions: recombinant FPTase; 650 nM Ras-CVLS, 100 nM farnesyl diphosphate; 30° C.; read-out: IC50, inhibitory activity against human FPTase
# Description: In vitro Inhibition of ras Farnesyl Transferase
# Transferase Assays. Isoprenyl-protein transferase activity assays are carried out at 30° C. unless noted otherwise. A typical reaction contains (in a final volume of 50 µL): [^3H]farnesyl diphosphate, Ras protein , 50 mM HEPES, pH 7.5, 5 mM MgCl2, 5 mM dithiothreitol, 10 μM ZnCl2, 0.1% polyethyleneglycol (PEG) (15,000-20,000 mw) and isoprenyl-protein transferase. The FPTase employed in the assay is prepared by recombinant expression as described in Omer, C. A., Kral, A. M., Diehl, R. E., Prendergast, G. C., Powers, S., Allen, C. M., Gibbs, J. B. and Kohl, N. E. (1993) Biochemistry 32:5167-5176. After thermally pre-equilibrating the assay mixture in the absence of enzyme, reactions are initiated by the addition of isoprenyl-protein transferase and stopped at timed intervals (typically 15 min) by the addition of 1 M HCl in ethanol (1 mL). The quenched reactions are allowed to stand for 15 m (to complete the precipitation process). After adding 2 mL of 100% ethanol, the reactions are vacuum-filtered through Whatman GFIC filters. Filters are washed four times with 2 mL aliquots of 100% ethanol, mixed with scintillation fluid (10 mL) and then counted in a Beckman LS3801 scintillation counter. […]
smiles,measurement,value
"N#Cc1ccc2cc1Oc1ccc3ccc(=O)n(c3c1)-c1ccc(cn1)CCc1cncn1C2 [Example 1, 17-Oxo-22,23-dihydro-5H-12,14:18,21-dietheno-6,10-metheno-benzo[d]imidazo [4,3-l][1,5,7,13]oxatriazacyclononadecine-9-carbonitrile dihydrochloride]",IC50,≤ 30 µM

# Source: patent US20020022633A1, “Inhibitors of prenyl-protein transferase” (priority 2000, published 2002)
